This note sets out measurements from patent US7452997B2 (priority 2004, dated 2008).

Like-named read-outs stand apart in the source and are kept apart here.

One assay concerns the target T1, human CB1 receptor (Homo sapiens, UniProt P21554).
T1 construct: expressed in transfected cells; host or cells: SK-N-MC cells, stably transfected with pcDNA3 CB-1 (human); semi-purified membrane pellet
The assay is described as follows: biochemical. It counts as binding. An outline of the steps: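 Membranes from SK-N-MC cells stably expressing human CB1, incubated 90 minutes at 30° C in Tris-HCl buffer with MgCl2, EDTA and fatty acid free BSA, pH 7.5. Bound counts collected by filtration and scintillation counting; IC50 from linear regression over varying compound concentrations.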

In a further assay the target is human CB2 receptor (Homo sapiens, UniProt P34972). Kind of assay: Binding assay, cannabinoid CB2 receptor ([3H]-CP-55,940 displacement). The settings on record: Cannabinoid CB2 Receptor Binding IC50, human CB2 receptor, SK-N-MC cell membranes, radioligand CP-55,940 0.2 nM. As to the method: Binding Assay for CB1 or CB2 Agonists or Inverse Agonists
Sequence of human CB2 receptor (P34972 whole entry): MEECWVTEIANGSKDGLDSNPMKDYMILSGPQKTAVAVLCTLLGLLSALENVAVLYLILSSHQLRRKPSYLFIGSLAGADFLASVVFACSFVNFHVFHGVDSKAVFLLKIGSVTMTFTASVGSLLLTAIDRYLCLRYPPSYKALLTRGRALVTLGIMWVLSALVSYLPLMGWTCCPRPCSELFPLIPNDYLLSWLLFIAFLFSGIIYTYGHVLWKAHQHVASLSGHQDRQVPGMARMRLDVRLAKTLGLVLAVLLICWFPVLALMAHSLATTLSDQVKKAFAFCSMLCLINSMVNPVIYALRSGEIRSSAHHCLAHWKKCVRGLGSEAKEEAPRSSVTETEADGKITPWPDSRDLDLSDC
The human CB1 and CB2 receptors were stably expressed in SK-N-MC cells transfected with pcDNA3 CB-1 (human) or pcDNA3 CB-2 (human). The cells were grown in T-180 cell culture flasks under standard cell culture conditions at 37° C. in a 5% CO2 atmosphere. The cells were harvested by trysinization and homogenized in a homogenization buffer (10 mM Tris, 0.2 mM MgCl2, 5 mM KCl, with protease inhibitors aprotinin, leupeptin, pepstatin A and bacitracin) and centrifuged (2000 g). The supernatant was then centrifuged in 2M sucrose (31,300 g) to produce a semi-purified membrane pellet. The pellet was resuspended in homogenization and store at −80° C.
On the day of the assay, the pellet was thawed on ice and diluted in assay buffer (50 mM Tris-HCl, 5 mM MgCl2, 2.5 mM EDTA, 0.5 mg/mL fatty acid free bovine serum albumin, pH 7.5). The diluted membrane was added with buffer, test compound or standard and the radioligand [H]^3+-CP-55,940_(0.2 nM) to the wells of a 96-well polypropylene plate. Non-specific binding was measured in wells containing 10 uM WIN 55,212. The plate was covered and incubated for 90 minutes at 30° C. The contents were then aspirated onto a Packard UNIFILTER GF/C filter bottom plate prewet with 0.5% polyethyleneimine. The wells of the polypropylene plate were rinsed and aspirated seven times with a 0.9% saline-0.5% TWEEN 20 solution. The UNIFILTER plate was dried, a scintillation cocktail was added to each well and the counts representing binding were quantitated in a TOPCOUNT scintillation counter.
The IC50 binding values for compounds tested were calculated by linear regression and were obtained from studies in which varying compound concentrations were used.

T1 sequence (P21554 whole entry): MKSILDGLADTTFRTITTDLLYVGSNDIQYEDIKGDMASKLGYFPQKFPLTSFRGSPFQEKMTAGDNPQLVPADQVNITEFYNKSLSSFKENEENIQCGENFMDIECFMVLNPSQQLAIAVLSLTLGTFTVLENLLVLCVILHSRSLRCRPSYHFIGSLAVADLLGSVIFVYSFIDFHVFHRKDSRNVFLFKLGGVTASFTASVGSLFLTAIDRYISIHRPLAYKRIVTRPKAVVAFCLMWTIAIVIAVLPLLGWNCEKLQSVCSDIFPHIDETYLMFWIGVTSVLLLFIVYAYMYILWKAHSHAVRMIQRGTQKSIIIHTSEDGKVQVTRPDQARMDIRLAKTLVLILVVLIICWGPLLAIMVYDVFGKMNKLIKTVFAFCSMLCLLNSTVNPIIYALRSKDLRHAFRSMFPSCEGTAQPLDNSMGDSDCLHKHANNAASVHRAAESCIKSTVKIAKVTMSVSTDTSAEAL

On to `CC12CCC(C1)C(C)(C)C2NC(=O)c1nn(-c2ccccc2F)c2c1CCCC2` (stereo not shown) [compound 16], for which the IC50 on human CB1 receptor stood at 0.185 µM; at human CB2 receptor, 0.0054 µM.

Consider `CS(=O)(=O)NC1CCc2c(c(C(=O)NC3C4CC5CC(C4)CC3C5)nn2C2CCCCC2)C1` (stereo not shown) [compound 104], for which the 50% inhibitory concentration (IC50) was determined as 17.1 µM against human CB1 receptor and 0.2 µM at human CB2 receptor.

On to `O=C(Nc1nn(C2CCCCC2)c2c1CCCC2)C12CC3CC(CC(C3)C1)C2` [compound 179], for which the 50% inhibitory concentration (IC50) amounted to 7.3 µM against human CB1 receptor and 0.7 µM on human CB2 receptor.

With `CN(C)C(=O)C1CCc2c(c(C(=O)NC3C4(C)CCC(C4)C3(C)C)nn2C2CCCCC2)C1` (stereo not shown) [compound 235], the values for the half-maximal inhibitory concentration (IC50) at human CB1 receptor and on human CB2 receptor were 3.6 µM and 1.4 µM, respectively.

Take `CCOC[C@H]1C2CCC(C2)[C@H]1NC(=O)c1nn(C2CCCCC2)c2c1CCCC2` (stereo partly shown) [compound 107]: the IC50 against human CB1 receptor is 0.91 µM; on human CB2 receptor, 1.4 µM.

Regarding `CC(NC(=O)Nc1nn(C2CCCCC2)c2c1CCCC2)C1CCCCC1` (stereo not shown) [compound 334], the IC50 against human CB1 receptor is 12.5 µM; on human CB2 receptor, 0.98 µM.

Take `CC(NC(=O)c1nn(C2CCCCC2)c2c1CC(CO)CC2)C12CC3CC(CC(C3)C1)C2` (stereo not shown) [Cpd 143, 1-cyclohexyl-5-hydroxymethyl-4,5,6,7-tetrahydro-1H-indazole-3-carboxylic acid (1-adamantan-1-yl-ethyl)-amide]: the IC50 at human CB1 receptor is 2.4 µM; on human CB2 receptor it was 1.26 µM.

With `CCOC(=O)[C@H]1C2CCC(C2)[C@H]1NC(=O)c1nn(CC2CCCCC2)c2c1CCCC2` (stereo partly shown) [compound 124], the half-maximal inhibitory concentration (IC50) against human CB1 receptor was determined as 0.007 µM; at human CB2 receptor, 0.016 µM.

With `CCOC(=O)[C@H]1C2C=CC(C2)[C@H]1NC(=O)c1c2c(nn1Cc1ccccc1)CCCC2` (stereo partly shown) [compound 275], the IC50 against human CB1 receptor came to 0.323 µM; at human CB2 receptor, 1.3 µM.

On to `CCC(NC(=O)c1nn(C2CCCCC2)c2c1CCCC2)C1CCCCC1` (stereo not shown) [compound 234], for which the half-maximal inhibitory concentration (IC50) at human CB1 receptor was determined as 0.23 µM; at human CB2 receptor it was 0.01 µM.

As for `CCOC(=O)C1CCc2nn(C3CCCCC3)c(C(=O)NC3C4CC5CC(C4)CC3C5)c2C1` (stereo not shown) [compound 221], the IC50 was 3.29 µM against human CB1 receptor and 0.46 µM on human CB2 receptor.

Regarding `CC(CC1CCCCC1)NC(=O)c1nn(C2CCCCC2)c2c1CCCC2` (stereo not shown) [compound 330], the concentration for half-maximal inhibition (IC50) is 1.9 µM at human CB1 receptor and 0.03 µM on human CB2 receptor.

Regarding `O=C(CCc1nn(C2CCCCC2)c2c1CCCC2)N[C@@H]1CCCC[C@H]1CO` [compound 51], the IC50 stood at 15.2 µM against human CB1 receptor and 8.42 µM on human CB2 receptor.

In the case of `COC(=O)C(Cc1c[nH]c2ccccc12)NC(=O)c1nn(Cc2ccccc2)c2c1CCCC2` (stereo not shown) [compound 83], the figures for the half-maximal inhibitory concentration (IC50) against human CB1 receptor and on human CB2 receptor were 0.038 µM and 0.02 µM, respectively.

Consider `CC12CCC(C1)C(C)(C)C2NC(=O)c1nn(C2CCCCC2)c2c1CC(O)CC2` (stereo not shown) [Cpd 93, 1-cyclohexyl-5-hydroxy-4,5,6,7-tetrahydro-1H-indazole-3-carboxylic acid (1,3,3-trimethyl-bicyclo[2.2.1]hept-2-yl)-amide], for which the IC50 on human CB1 receptor came to 1.15 µM; on human CB2 receptor, 0.02 µM.

In the case of `CC(c1ccccc1)n1nc(C(=O)NC2C3CC4CC(C3)CC2C4)c2c1CCCC2` (stereo not shown) [compound 243], the IC50 against human CB1 receptor amounted to 0.13 µM; at human CB2 receptor it was 0.004 µM.

Take `CC(NC(=O)c1nn(Cc2ccccc2)c2c1CCCC2)C12CC3CC(CC(C3)C1)C2` (stereo not shown) [compound 39]: the half-maximal inhibitory concentration (IC50) on human CB1 receptor stood at 0.009 µM; on human CB2 receptor, 0.006 µM.

As to `CCOC(=O)[C@@H]1C2C=CC(C2)[C@@H]1NC(=O)c1nn(Cc2ccccc2)c2c1CCCC2` (stereo partly shown) [compound 206], the IC50 on human CB1 receptor worked out at 0.097 µM; on human CB2 receptor it was 0.0141 µM.

Consider `CC(NC(=O)c1nn(C2CCCCC2)c2c1CCCC2)[C@H]1CC[C@H](C)CC1` (stereo partly shown) [compound 248], for which the 50% inhibitory concentration (IC50) turned out to be 0.16 µM on human CB1 receptor (human CB1 receptor, SK-N-MC cell membranes, radioligand CP-55,940 0.2 nM, read-out: Cannabinoid CB1 Receptor Binding IC50) and 0.02 µM on human CB2 receptor.

`CC1CCCCC1NC(=O)c1nn(C2CCCCC2)c2c1CCCC2` (stereo not shown) [compound 245]: the 50% inhibitory concentration (IC50) against human CB1 receptor was 0.02 µM; on human CB2 receptor, 0.002 µM.

`COC1CCCc2c(C(=O)NC(C)C34CC5CC(CC(C5)C3)C4)nn(C3CCCCC3)c21` (stereo not shown) [compound 161]: the IC50 against human CB1 receptor amounted to 5.23 µM; on human CB2 receptor, 0.775 µM.

As to `CCOC(=O)[C@H]1CCCC[C@@H]1NC(=O)c1c2c(nn1Cc1ccccc1)CCCC2` [compound 271], the half-maximal inhibitory concentration (IC50) is 6.2 µM at human CB1 receptor and 2.6 µM at human CB2 receptor.

With `CCOC(=O)C1CCc2c(C(=O)NC(C)C34CC5CC(CC(C5)C3)C4)nn(C3CCCCC3)c2C1` (stereo not shown) [compound 69], the 50% inhibitory concentration (IC50) was determined as 0.22 µM against human CB1 receptor and 0.0027 µM on human CB2 receptor.

Consider `O=C(NC1CCCc2ccccc21)c1nn(C2CCCCC2)c2c1CCCC2` (stereo not shown) [compound 183], for which the IC50 was found to be 0.05 µM against human CB1 receptor and 0.0069 µM at human CB2 receptor.

`COC(=O)C(Cc1ccc(O)cc1)NC(=O)c1c2c(nn1-c1ccc(OC)cc1)CCCC2` (stereo not shown) [compound 6]: the IC50 turned out to be 6.75 µM against human CB1 receptor and 0.367 µM on human CB2 receptor.

On to `CC(C)(C)C1CCc2c(c(C(=O)NC3C4(C)CCC(C4)C3(C)C)nn2C2CCCCC2)C1` (stereo not shown) [compound 99], for which the IC50 was found to be 0.96 µM on human CB1 receptor and 0.25 µM at human CB2 receptor.

In the case of `COC(=O)C(Cc1ccc(O)cc1)NC(=O)c1nn(C2CCCCC2)c2c1CCCC2` (stereo not shown) [compound 77], the 50% inhibitory concentration (IC50) at human CB1 receptor was 0.052 µM; on human CB2 receptor, 0.003 µM.

Regarding `CC12CCC(C1)C(C)(C)C2NC(=O)c1nn(-c2ccc(F)cc2)c2c1CCCC2C1CCCCC1` (stereo not shown) [compound 24], the results for the IC50 against human CB1 receptor and on human CB2 receptor were 3.81 µM and 6.82 µM, respectively.

On to `CCOC(=O)C1CCc2c(c(C(=O)N[C@H](C)C3CCCCC3)nn2Cc2ccccc2)C1` (stereo partly shown) [compound 289], for which the IC50 came to 0.88 µM on human CB1 receptor and 0.4 µM on human CB2 receptor.

Consider `O=C(NC12CC3CC(CC(C3)C1)C2)c1nn(-c2ccc(Cl)cc2Cl)c2c1CCCC2` [compound 139], for which the IC50 worked out at 0.16 µM against human CB1 receptor and 0.3 µM at human CB2 receptor.

For `CC(C)(Cc1nn(C2CCCCC2)c2c1CCCC2)C(=O)NC1C2CC3CC(C2)CC1C3` (stereo not shown) [Cpd 66, N-adamantan-2-yl-3-(1-cyclohexyl-4,5,6,7-tetrahydro-1H-indazol-3-yl)-2,2-dimethyl-propionamide], the IC50 on human CB1 receptor came out at 3.59 µM; on human CB2 receptor, 1.4 µM.

As for `CC(NC(=O)c1nn(-c2ccc(F)cc2)c2c1CCCC2CCc1ccccc1)C12CC3CC(CC(C3)C1)C2` (stereo not shown) [compound 153], the figures for the IC50 against human CB1 receptor and on human CB2 receptor were 1.39 µM and 0.06 µM, respectively.

Turning to `O=C(CNC(=O)c1nn(C2CCCCC2)c2c1CCCC2)c1ccc(Br)cc1` [compound 177], the results for the IC50 against human CB1 receptor and on human CB2 receptor were 10.5 µM and 2.4 µM, respectively.

For the compound `O=C(NCC12CC3CC(CC(C3)C1)C2)c1c2c(nn1-c1ccc(Cl)cc1Cl)CCCC2` [compound 142], the concentration for half-maximal inhibition (IC50) at human CB1 receptor is 0.6 µM; on human CB2 receptor it was 0.4 µM.

Consider `CC12CCC(C1)C(C)(C)C2NC(=O)c1nn(Cc2ccccc2)c2c1CCCC2c1ccccc1` (stereo not shown) [compound 265], for which the IC50 was found to be 0.096 µM against human CB1 receptor and 0.041 µM on human CB2 receptor.

`CC(NC(=O)c1nn(C2CCCCC2)c2c1CCCC2)C1CCCC1` (stereo not shown) [compound 193]: the concentration for half-maximal inhibition (IC50) is 0.12 µM against human CB1 receptor and 0.005 µM on human CB2 receptor.

As for `Cc1ccc(-n2nc(C(=O)NC3C4(C)CCC(C4)C3(C)C)c3c2CCCC3)cc1` (stereo not shown) [compound 11], the IC50 on human CB1 receptor amounted to 0.285 µM; at human CB2 receptor it was 0.0406 µM.

Regarding `CCOC(=O)N1CCC(NC(=O)c2nn(Cc3ccccc3)c3c2CCCC3)CC1` [compound 171], the 50% inhibitory concentration (IC50) against human CB1 receptor stood at 0.64 µM; on human CB2 receptor it was 0.3 µM.

On to `O=C(NCC(=O)C1CCCCC1)c1nn(C2CCCCC2)c2c1CCCC2` [compound 187], for which the figures for the IC50 against human CB1 receptor and on human CB2 receptor were 3.69 µM and 1.6 µM, respectively.

With `CCOC(=O)C1CCCc2c1c(C(=O)NC1C3CC4CC(C3)CC1C4)nn2Cc1ccccc1` (stereo not shown) [compound 158], the IC50 at human CB1 receptor is 0.013 µM; at human CB2 receptor it was 0.009 µM.

Turning to `O=C(NCC12CC3CC(CC(C3)C1)C2)c1nn(Cc2ccccc2)c2c1CCCC2` [compound 135], the half-inhibitory concentration (IC50) at human CB1 receptor was found to be 0.67 µM; on human CB2 receptor it was 0.02 µM.

For the compound `COc1ccccc1C(Cc1nn(C2CCCCC2)c2c1CCCC2)C(=O)NC1C2(C)CCC(C2)C1(C)C` (stereo not shown) [Cpd 333, 3-(1-cyclohexyl-4,5,6,7-tetrahydro-1H-indazol-3-yl)-2-(2-methoxy-phenyl)-N-(1,3,3-trimethyl-bicyclo[2.2.1]hept-2-yl)-propionamide], the IC50 was found to be 5.7 µM at human CB1 receptor and 2.9 µM at human CB2 receptor.

Regarding `CCOC(=O)[C@H]1C2CCC(C2)[C@H]1NC(=O)C(C)(C)Cc1nn(C2CCCCC2)c2c1CCCC2` (stereo partly shown) [compound 281], the IC50 at human CB1 receptor is 19.7 µM; on human CB2 receptor, 16.5 µM.

Consider `O=C(NNC1CCCCC1)c1nn(C2CCCCC2)c2c1CCCC2` [compound 31], for which the IC50 against human CB1 receptor was 1.69 µM; on human CB2 receptor, 0.195 µM.
